Experimental data: patent US8962674B2 (Tokyo Institute of Technology, priority 2006, dated 2015)

SMILES	melting point [°C]
COc1cc(/C=C/C(=O)CC(=O)/C=C/c2ccc(O)cc2)cc(OC)c1O [CU134, (1E,6E)-1-(4-hydroxy-3,5-dimethoxyphenyl)-7-(4-hydroxyphenyl)hepta-1,6-diene-3,5-dione]	228 to 233
COc1ccc(/C=C/C(=O)CC(=O)/C=C/c2cc(OC)c(O)c(OC)c2)cc1O [CU136, (1E,6E)-1-(4-hydroxy-3,5-dimethoxyphenyl)-7-(3-hydroxy-4-methoxyphenyl)hepta-1,6-diene-3,5-dione]	91 to 95
COc1cc(/C=C/C(=O)CC(=O)/C=C/c2ccc(O)cc2)ccc1F [CU137, (1E,6E)-1-(4-fluoro-3-methoxyphenyl)-7-(4-hydroxyphenyl)hepta-1,6-diene-3,5-dione]	136 to 143
COc1cc(/C=C/C(=O)CC(=O)/C=C/c2ccc(F)c(OC)c2)ccc1O [CU138, (1E,6E)-1-(4-fluoro-3-methoxyphenyl)-7-(4-hydroxy-3-methoxyphenyl)hepta-1,6-diene-3,5-dione]	150 to 155
COc1ccc(/C=C/C(=O)CC(=O)/C=C/c2ccc(F)c(OC)c2)cc1O [CU139, (1E,6E)-1-(4-fluoro-3-methoxyphenyl)-7-(3-hydroxy-4-methoxyphenyl)hepta-1,6-diene-3,5-dione]	145 to 147
COc1cc(/C=C/C(=O)CC(=O)/C=C/c2cc(Cl)cc(Cl)c2)ccc1O [CU140, (1E,6E)-1-(3,5-dichlorophenyl)-7-(4-hydroxy-3-methoxyphenyl)hepta-1,6-diene-3,5-dione]	170 to 173
COc1ccc(/C=C/C(=O)CC(=O)/C=C/c2cc(Cl)cc(Cl)c2)cc1O [CU141, (1E,6E)-1-(3,5-dichlorophenyl)-7-(3-hydroxy-4-methoxyphenyl)hepta-1,6-diene-3,5-dione]	176 to 183
O=C(/C=C/c1ccc(O)cc1)CC(=O)/C=C/c1ncc[nH]1 [CU143, (1E,6E)-1-(4-hydroxyphenyl)-7-(1H-imidazol-2-yl)hepta-1,6-diene-3,5-dione]	175 to 181
COc1cc(/C=C/C(=O)CC(=O)/C=C/c2ccc(Cl)cc2Cl)ccc1O [CU144, (1E,6E)-1-(2,4-dichlorophenyl)-7-(4-hydroxy-3-methoxyphenyl)hepta-1,6-diene-3,5-dione]	124 to 130
COc1cc(/C=C/C(=O)CC(=O)/C=C/c2cc3ccccc3n2C)ccc1O [CU147, (1E,6E)-1-(4-hydroxy-3-methoxyphenyl)-7-(1-methyl-1H-indol-2-yl)hepta-1,6-diene-3,5-dione]	167 to 170
O=C(/C=C/c1ccc(O)cc1)CC(=O)/C=C/c1ccc2ccccc2c1 [CU149, (1E,6E)-1-(4-hydroxyphenyl)-7-(naphthalen-2-yl)hepta-1,6-diene-3,5-dione]	225 to 230
COc1ccc(/C=C/C(=O)CC(=O)/C=C/c2ncc[nH]2)cc1O [CU151, (1E,6E)-1-(3-hydroxy-4-methoxyphenyl)-7-(1H-imidazol-2-yl)hepta-1,6-diene-3,5-dione]	219 to 221
COc1cc(/C=C/C(=O)CC(=O)/C=C/c2ncc[nH]2)ccc1O [CU152, (1E,6E)-1-(4-hydroxy-3-methoxyphenyl)-7-(1H-imidazol-2-yl)hepta-1,6-diene-3,5-dione]	235 to 240
COc1cc(/C=C/C(=O)CC(=O)/C=C/c2ccc(N(C)C)cc2OC)ccc1O [CU154, (1E,6E)-1-(4-dimethylamino-2-methoxyphenyl)-7-(4-hydroxy-3-methoxyphenyl)hepta-1,6-diene-3,5-dione]	117 to 119
COc1ccc(/C=C/C(=O)CC(=O)/C=C/c2ccc(N(C)C)cc2OC)cc1O [CU155, (1E,6E)-1-(4-dimethylamino-2-methoxyphenyl)-7-(3-hydroxy-4-methoxyphenyl)hepta-1,6-diene-3,5-dione]	108 to 113
O=C(/C=C/c1ccc(O)cc1)CC(=O)/C=C/c1c[nH]cn1 [CU157, (1E,6E)-1-(4-hydroxyphenyl)-7-(1H-imidazol-4-yl)hepta-1,6-diene-3,5-dione]	168 to 172
COc1cccc(/C=C/C(=O)CC(=O)/C=C/c2ccc(O)cc2)c1 [CU158, (1E,6E)-1-(4-hydroxyphenyl)-7-(3-methoxyphenyl)hepta-1,6-diene-3,5-dione]	74 to 80
COc1ccc(/C=C/C(=O)CC(=O)/C=C/c2ccc(OC)c3ccccc23)cc1O [CU163, (1E,6E)-1-(3-hydroxy-4-methoxyphenyl)-7-(4-methoxynaphthalen-1-yl)hepta-1,6-diene-3,5-dione]	170 to 175
COc1ccc(/C=C/C(=O)CC(=O)/C=C/c2ccc3ccccc3c2)cc1O [CU165, (1E,6E)-1-(3-hydroxy-4-methoxyphenyl)-7-(naphthalen-2-yl)hepta-1,6-diene-3,5-dione]	193 to 194
COc1ccc2cc(/C=C/C(=O)CC(=O)/C=C/c3ccc(O)cc3)ccc2c1 [CU166, (1E,6E)-1-(4-hydroxyphenyl)-7-(6-methoxynaphthalen-2-yl)hepta-1,6-diene-3,5-dione]	217 to 220

The remaining lines, values ahead:

melting point [°C]	SMILES
146 to 150	COc1ccc(/C=C/C(=O)CC(=O)/C=C/c2ccc(N(C)C)c3ccccc23)cc1O [CU168, (1E,6E)-1-(4-dimethylaminonaphthalen-1-yl)-7-(3-hydroxy-4-methoxyphenyl)hepta-1,6-diene-3,5-dione]
175 to 181	COc1ccc2cc(/C=C/C(=O)CC(=O)/C=C/c3ccc(OC)c(O)c3)ccc2c1 [CU171, (1E,6E)-1-(3-hydroxy-4-methoxyphenyl)-7-(6-methoxynaphthalen-2-yl)hepta-1,6-diene-3,5-dione]
165 to 169	COc1c(O)cccc1/C=C/C(=O)CC(=O)/C=C/c1ccc(O)cc1 [CU174, (1E,6E)-1-(4-hydroxyphenyl)-7-(3-hydroxy-2-methoxyphenyl)hepta-1,6-diene-3,5-dione]
75 to 80	COc1cc(/C=C/C(=O)CC(=O)/C=C/c2cc(O)ccc2OC)ccc1O [CU178, (1E,6E)-1-(4-hydroxy-3-methoxyphenyl)-7-(5-hydroxy-2-methoxyphenyl)hepta-1,6-diene-3,5-dione]
116 to 120	COc1ccc(/C=C/C(=O)CC(=O)/C=C/c2cc(O)ccc2OC)cc1O [CU179, (1E,6E)-1-(3-hydroxy-4-methoxyphenyl)-7-(5-hydroxy-2-methoxyphenyl)hepta-1,6-diene-3,5-dione]
161 to 165	COc1cc(O)cc(/C=C/C(=O)CC(=O)/C=C/c2ccc(O)cc2)c1 [CU180, (1E,6E)-1-(4-hydroxyphenyl)-7-(3-hydroxy-5-methoxyphenyl)hepta-1,6-diene-3,5-dione]
69 to 75	COc1cc(O)cc(/C=C/C(=O)CC(=O)/C=C/c2ccc(O)c(OC)c2)c1 [CU181, (1E,6E)-1-(3-hydroxy-5-methoxyphenyl)-7-(4-hydroxy-3-methoxyphenyl)hepta-1,6-diene-3,5-dione]
196 to 200	COc1cc(O)cc(/C=C/C(=O)CC(=O)/C=C/c2ccc(OC)c(O)c2)c1 [CU182, (1E,6E)-1-(3-hydroxy-4-methoxyphenyl)-7-(3-hydroxy-5-methoxyphenyl)hepta-1,6-diene-3,5-dione]
142 to 147	COc1cc(/C=C/C(=O)CC(=O)/C=C/c2cc(Cl)ccc2Cl)ccc1O [CU184, (1E,6E)-1-(2,5-dichlorophenyl)-7-(4-hydroxy-3-methoxyphenyl)hepta-1,6-diene-3,5-dione]
140 to 146	COc1ccc(/C=C/C(=O)CC(=O)/C=C/c2cc(Cl)ccc2Cl)cc1O [CU185, (1E,6E)-1-(2,5-dichlorophenyl)-7-(3-hydroxy-4-methoxyphenyl)hepta-1,6-diene-3,5-dione]
135 to 138	COc1cc(/C=C/C(=O)CC(=O)/C=C/c2ccc3[nH]ccc3c2)ccc1O [CU188, (1E,6E)-1-(4-hydroxy-3-methoxyphenyl)-7-(1H-indol-5-yl)hepta-1,6-diene-3,5-dione]
197 to 202	COc1ccc(/C=C/C(=O)CC(=O)/C=C/c2ccc3cc[nH]c3c2)cc1O [CU191, (1E,6E)-1-(3-hydroxy-4-methoxyphenyl)-7-(1H-indol-6-yl)hepta-1,6-diene-3,5-dione]
203 to 210	COc1cc(/C=C/C(=O)CC(=O)/C=C/c2ccc(N(C)C)cc2[N+](=O)[O-])ccc1O [CU192, (1E,6E)-1-(4-dimethylamino-2-nitrophenyl)-7-(4-hydroxy-3-methoxyphenyl)hepta-1,6-diene-3,5-dione]
113 to 120	COc1cc(/C=C/C(=O)CC(=O)/C=C/c2ccc(N(C)C)cc2Cl)ccc1O [CU196, (1E,6E)-1-(2-chloro-4-dimethylaminophenyl)-7-(4-hydroxy-3-methoxyphenyl)hepta-1,6-diene-3,5-dione]
183 to 186	COc1ccc(/C=C/C(=O)CC(=O)/C=C/c2ccc(N(C)C)cc2[N+](=O)[O-])cc1O [CU197, (1E,6E)-1-(4-dimethylamino-2-nitrophenyl)-7-(3-hydroxy-4-methoxyphenyl)hepta-1,6-diene-3,5-dione]
165 to 172	O=C(/C=C/c1ccc(O)cc1)CC(=O)/C=C/c1cc(Cl)cc(Cl)c1 [CU201, (1E,6E)-1-(3,5-dichlorophenyl)-7-(4-hydroxyphenyl)hepta-1,6-diene-3,5-dione]
160 to 164	COc1ccc(/C=C/C(=O)CC(=O)/C=C/c2ccc(N(C)C)cc2Cl)cc1O [CU202, (1E,6E)-1-(2-chloro-4-dimethylaminophenyl)-7-(3-hydroxy-4-methoxyphenyl)hepta-1,6-diene-3,5-dione]
221 to 224	CS(=O)(=O)c1ccc(/C=C/C(=O)CC(=O)/C=C/c2ccc(O)cc2)cc1 [CU203, (1E,6E)-1-(4-hydroxyphenyl)-7-(4-methanesulfonylphenyl)hepta-1,6-diene-3,5-dione]
101 to 105	COc1cc(/C=C/C(=O)CC(=O)/C=C/c2ccc(O)cc2)cc(OC)c1OC [CU204, (1E,6E)-1-(4-hydroxyphenyl)-7-(3,4,5-trimethoxyphenyl)hepta-1,6-diene-3,5-dione]
195 to 200	COc1ccc(/C=C/C(=O)CC(=O)/C=C/c2cc(OC)c(OC)c(OC)c2)cc1O [CU205, (1E,6E)-1-(3-hydroxy-4-methoxyphenyl)-7-(3,4,5-trimethoxyphenyl)hepta-1,6-diene-3,5-dione]
